Experimental data published in the supplement of paper PMC5908809.

Tests used:
[1] = system: normal primary NK cells, pool 1 (3 donors) (IL-2 2.5 ng/mL); experiment: drug sensitivity score (DSS) (DSS units); higher = more sensitive; extreme values may be limits of the assay; settings: 72 h
[2] = system: NK-YS (IL-2 2.5 ng/mL); experiment: as above; settings: 72 h
[3] = system: SNK-6 (IL-2 2.5 ng/mL); experiment: as above; settings: 72 h
[4] = system: NKL (IL-2 2.5 ng/mL); experiment: as above; settings: 72 h
[5] = system: normal primary NK cells, pool 3 (3 donors) (IL-2 2.5 ng/mL); experiment: as above; settings: 72 h
[6] = system: normal primary NK cells, pool 1 (3 donors), resting (IL-2 0 ng/mL); experiment: as above; settings: 72 h
[7] = system: KAI3 (IL-2 2.5 ng/mL); experiment: as above; settings: 72 h
[8] = system: normal primary NK cells, pool 2 (3 donors) (IL-2 2.5 ng/mL); experiment: as above; settings: 72 h
[9] = system: IMC-1 (IL-2 20 ng/mL); experiment: as above; settings: 72 h
[10] = system: KHYG-1 (IL-2 2.5 ng/mL); experiment: as above; settings: 72 h
[11] = system: DERL-7 (IL-2 2.5 ng/mL); experiment: as above; settings: 72 h
[12] = system: YT (IL-2 2.5 ng/mL); experiment: as above; settings: 72 h
[13] = system: NK-92 (IL-2 2.5 ng/mL); experiment: as above; settings: 72 h
[14] = system: normal NK cells expanded with K562-aAPC; experiment: as above; settings: 72 h; IL-2 2.5 ng/mL
Protocol: (§1)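 Drug sensitivity and resistance testing on K562-aAPC-expanded normal NK cells: 5 concentrations (10-fold steps over a 10,000-fold range), 72 h at 37 °C, viability by CellTiter-Glo normalised to DMSO and benzethonium chloride controls; DSS from the fitted curve.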

[15] = system: normal NK cells expanded with K562-aAPC; experiment: percent inhibition of viability; higher = more inhibition; settings: 72 h, IL-2 2.5 ng/mL
Protocol: as §1

[16] = system: normal primary NK cells, pool 1 (3 donors) (IL-2 2.5 ng/mL); experiment: as above; settings: 72 h
[17] = system: NK-YS (IL-2 2.5 ng/mL); experiment: as above; settings: 72 h
[18] = system: SNK-6 (IL-2 2.5 ng/mL); experiment: as above; settings: 72 h
[19] = system: NKL (IL-2 2.5 ng/mL); experiment: as above; settings: 72 h
[20] = system: normal primary NK cells, pool 3 (3 donors) (IL-2 2.5 ng/mL); experiment: as above; settings: 72 h
[21] = system: normal primary NK cells, pool 1 (3 donors), resting (IL-2 0 ng/mL); experiment: as above; settings: 72 h
[22] = system: KAI3 (IL-2 2.5 ng/mL); experiment: as above; settings: 72 h
[23] = system: normal primary NK cells, pool 2 (3 donors) (IL-2 2.5 ng/mL); experiment: as above; settings: 72 h
[24] = system: IMC-1 (IL-2 20 ng/mL); experiment: as above; settings: 72 h
[25] = system: KHYG-1 (IL-2 2.5 ng/mL); experiment: as above; settings: 72 h
[26] = system: DERL-7 (IL-2 2.5 ng/mL); experiment: as above; settings: 72 h
[27] = system: YT (IL-2 2.5 ng/mL); experiment: as above; settings: 72 h
[28] = system: NK-92 (IL-2 2.5 ng/mL); experiment: as above; settings: 72 h

C[C@@H](Oc1cc(-c2cnn(C3CCNCC3)c2)cnc1N)c1c(Cl)ccc(F)c1Cl [Crizotinib] (max concentration tested 1000 nM)
Settings | drug sensitivity score
[1] | 2.41
[2] | 0.12
[3] | 0
[4] | 3.75
[5] | 0.4
[6] | 1.99
[7] | 1.25
[8] | 0.49
[9] | 0
[10] | 0.95
[11] | 0.81
[12] | 1.25
[13] | 3.72
[14] | 0.44

percent inhibition of viability [%]
Settings | 0.1 nM | 1 nM | 10 nM | 100 nM | 1000 nM
[15] | -7.86 | -6.31 | -9.93 | -2.46 | 19.7
[16] | -4.24 | -0.87 | 8.61 | 7.22 | 32.6
[17] | -6.03 | -14.8 | -8.66 | -7.59 | 15.5
[18] | -16.1 | -28 | -15 | -17.9 | -4.35
[19] | -3.16 | -3.23 | -5.42 | 9.67 | 43.3
[20] | -11.7 | -8.52 | 6.99 | -0.76 | 18
[21] | -6.8 | -15.6 | -1.32 | 0.53 | 39.1
[22] | -4.43 | -13.2 | -10.6 | -0.67 | 30.1
[23] | -7.13 | -11.6 | -1.57 | -2.22 | 20.3
[24] | -4.84 | -8.42 | -0.95 | 5.13 | 7.41
[25] | -1.4 | -6.18 | 0.71 | 2.28 | 20.6
[26] | -0.63 | 5.41 | -1.8 | -2.42 | 25.2
[27] | -0.11 | -5.24 | -1.87 | 2.08 | 25.1
[28] | -12.7 | 0.5 | -4.15 | 16.4 | 34.7

C[C@]12CC[C@H](O)CC1=CC[C@@H]1[C@@H]2CC[C@]2(C)C(c3cccnc3)=CC[C@@H]12 [Abiraterone] (max concentration tested 5000 nM)
Settings | drug sensitivity score
[1] | 0
[2] | 0.2
[3] | 0.89
[4] | 0
[5] | 0
[6] | 1
[7] | 1.81
[8] | 0
[9] | 1.72
[10] | 0
[11] | 0
[12] | 0
[13] | 3.2
[14] | 0.21

percent inhibition of viability [%]
Settings | 0.5 nM | 5 nM | 50 nM | 500 nM | 5000 nM
[15] | -3.92 | -2.08 | -4.35 | -1.44 | 15.5
[16] | -9.05 | -7.76 | 5.1 | -0.54 | -7.49
[17] | 4.24 | -1.71 | 1.76 | 0.55 | 14
[18] | -4.3 | -11.1 | -26.2 | -25.2 | -1.46
[19] | 8.55 | 9.91 | 1.09 | 12.8 | 9.69
[20] | 5.18 | 4.84 | 1.7 | 15.9 | -1.9
[21] | 2.81 | 1.54 | 10.1 | 10.2 | 16.1
[22] | 4.32 | 6.7 | 11.6 | 12.4 | 18.3
[23] | -1.86 | 7.99 | 1.79 | 9.51 | 6.09
[24] | -0.05 | 0.08 | 1.73 | 4.6 | 25.9
[25] | 2.05 | 18.6 | -0.59 | 2.88 | 6.94
[26] | -1.84 | 6.7 | -3.24 | 8.85 | -0.3
[27] | -0.02 | 9.21 | -0.43 | 11.5 | 4.01
[28] | 3.02 | 0.66 | 4.19 | 19.8 | 18.9
